# In ChEMBL document CHEMBL1201862, “PubChem BioAssay data set” (2004):
#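 Exposure lasted 48 hours, with cells grown in 96-well plates and compounds tested at five concentrations. GI50 is the concentration that inhibits growth by half.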 The source made the active and inactive calls. No stated cut-off is given here; in the data, active = GI50 up to about 1.1 µM and inactive = higher.
# Tests used:
# Assay in all cases: inhibition of tumour cell growth, NCI panel, 48 h
# 786-0 = tested on: 786-0
# A498 = tested on: A498
# A549 = tested on: A549
# ACHN = tested on: ACHN
# BT-549 = tested on: BT-549
# CAKI-1 = tested on: CAKI-1
# COLO 205 = tested on: COLO 205
# DU-145 = tested on: DU-145
# EKVX = tested on: EKVX
# HCT-116 = tested on: HCT-116
# HCT-15 = tested on: HCT-15
# HL-60 = tested on: HL-60
# HOP-62 = tested on: HOP-62
# HOP-92 = tested on: HOP-92
# HT-29 = tested on: HT-29
# Hs-578T = tested on: Hs-578T
# IGROV-1 = tested on: IGROV-1
# K562 = tested on: K562
# KM12 = tested on: KM12
# LOX IMVI = tested on: LOX IMVI
# M14 = tested on: M14
# MCF7 = tested on: MCF7
# MDA-MB-231 = tested on: MDA-MB-231
# MDA-MB-435 = tested on: MDA-MB-435
# MDA-N = tested on: MDA-N
# MOLT-4 = tested on: MOLT-4
# NCI-H226 = tested on: NCI-H226
# NCI-H23 = tested on: NCI-H23
# NCI-H460 = tested on: NCI-H460
# NCI-H522 = tested on: NCI-H522
# NCI/ADR-RES = tested on: NCI/ADR-RES
# OVCAR-3 = tested on: OVCAR-3
# OVCAR-4 = tested on: OVCAR-4
# OVCAR-5 = tested on: OVCAR-5
# OVCAR-8 = tested on: OVCAR-8
# PC-3 = tested on: PC-3
# RPMI-8226 = tested on: RPMI-8226
# RXF 393 = tested on: RXF 393
# SF-268 = tested on: SF-268
# SF-295 = tested on: SF-295
# SF-539 = tested on: SF-539
# SK-MEL-28 = tested on: SK-MEL-28
# SK-MEL-5 = tested on: SK-MEL-5
# SK-OV-3 = tested on: SK-OV-3
# SN12C = tested on: SN12C
# SNB-19 = tested on: SNB-19
# SNB-75 = tested on: SNB-75
# SR = tested on: SR
# SW-620 = tested on: SW-620
# T47D = tested on: T47D
# TK-10 = tested on: TK-10
# U-251 = tested on: U-251
# UACC-62 = tested on: UACC-62
# UO-31 = tested on: UO-31
structure (smiles),measurement,setting,value
COC(=O)C1(NC(=O)C(CC(=O)OCc2ccccc2)NC(=O)OCc2ccccc2)CCCCCCC1 (centres undefined),GI50,786-0,63.8 µM (inactive)
same,GI50,A498,13.6 µM (inactive)
same,GI50,A549,32.1 µM (inactive)
same,GI50,ACHN,34.4 µM (inactive)
same,GI50,BT-549,23.9 µM (inactive)
same,GI50,CAKI-1,31.1 µM (inactive)
same,GI50,COLO 205,25.8 µM (inactive)
same,GI50,DU-145,> 100 µM (inactive)
same,GI50,EKVX,45.4 µM (inactive)
same,GI50,HCT-116,27.9 µM (inactive)
same,GI50,HCT-15,30.3 µM
same,GI50,HL-60,11.3 µM (inactive)
same,GI50,HOP-62,> 100 µM (inactive)
same,GI50,HOP-92,42.9 µM (inactive)
same,GI50,HT-29,24.6 µM (inactive)
same,GI50,Hs-578T,45.6 µM (inactive)
same,GI50,IGROV-1,30 µM (inactive)
same,GI50,K562,10.2 µM (inactive)
same,GI50,KM12,48.3 µM (inactive)
same,GI50,LOX IMVI,28.2 µM (inactive)
same,GI50,M14,34.4 µM (inactive)
same,GI50,MCF7,31.8 µM (inactive)
same,GI50,MDA-MB-231,56.4 µM (inactive)
same,GI50,MDA-MB-435,29.9 µM (inactive)
same,GI50,MDA-N,28.6 µM (inactive)
same,GI50,MOLT-4,4.69 µM (inactive)
same,GI50,NCI-H226,40.3 µM (inactive)
same,GI50,NCI-H23,46.6 µM (inactive)
same,GI50,NCI-H460,30.7 µM (inactive)
same,GI50,NCI-H522,13 µM (inactive)
same,GI50,NCI/ADR-RES,19.3 µM (inactive)
same,GI50,OVCAR-3,60.1 µM (inactive)
same,GI50,OVCAR-4,29.8 µM (inactive)
same,GI50,OVCAR-5,62.7 µM (inactive)
same,GI50,OVCAR-8,26.4 µM (inactive)
same,GI50,PC-3,7.96 µM (inactive)
same,GI50,RPMI-8226,5.56 µM (inactive)
same,GI50,RXF 393,15.4 µM (inactive)
same,GI50,SF-268,44.7 µM (inactive)
same,GI50,SF-295,31.6 µM (inactive)
same,GI50,SF-539,49.7 µM (inactive)
same,GI50,SK-MEL-28,8.69 µM (inactive)
same,GI50,SK-MEL-5,13.8 µM (inactive)
same,GI50,SK-OV-3,40 µM (inactive)
same,GI50,SN12C,36.6 µM (inactive)
same,GI50,SNB-19,49.5 µM (inactive)
same,GI50,SNB-75,28.6 µM (inactive)
same,GI50,SR,5.35 µM (inactive)
same,GI50,SW-620,31.3 µM (inactive)
same,GI50,T47D,17.6 µM (inactive)
same,GI50,TK-10,47.4 µM (inactive)
same,GI50,U-251,47.2 µM (inactive)
same,GI50,UACC-62,24.3 µM (inactive)
same,GI50,UO-31,35.6 µM (inactive)
